Data reported in BindingDB's records for doi:10.1021/jm00081a005 (University of Wisconsin-Madison, 1992).

Test: Compound was tested for binding affinity towards cytosolic aminopeptidase

Ki: > 600 µM
Structure (SMILES): CC(=O)[C@@H](N)CC(C)C
